Data: PubChem BioAssay AID435027 (Sanford-Burnham Center for Chemical Genomics, 2010)

Target: Tyrosine-protein phosphatase non-receptor type 22 (Homo sapiens) (UniProt Q9Y2R2)
Experiment: concentration-dependent PTPN22 LYP inhibition – biochemical, pCAP substrate, fluorescence intensity, dose response (AID 435027)
Conditions: recombinant LYP

Chain of Tyrosine-protein phosphatase non-receptor type 22 (Homo sapiens) (Q9Y2R2 whole entry, looked up): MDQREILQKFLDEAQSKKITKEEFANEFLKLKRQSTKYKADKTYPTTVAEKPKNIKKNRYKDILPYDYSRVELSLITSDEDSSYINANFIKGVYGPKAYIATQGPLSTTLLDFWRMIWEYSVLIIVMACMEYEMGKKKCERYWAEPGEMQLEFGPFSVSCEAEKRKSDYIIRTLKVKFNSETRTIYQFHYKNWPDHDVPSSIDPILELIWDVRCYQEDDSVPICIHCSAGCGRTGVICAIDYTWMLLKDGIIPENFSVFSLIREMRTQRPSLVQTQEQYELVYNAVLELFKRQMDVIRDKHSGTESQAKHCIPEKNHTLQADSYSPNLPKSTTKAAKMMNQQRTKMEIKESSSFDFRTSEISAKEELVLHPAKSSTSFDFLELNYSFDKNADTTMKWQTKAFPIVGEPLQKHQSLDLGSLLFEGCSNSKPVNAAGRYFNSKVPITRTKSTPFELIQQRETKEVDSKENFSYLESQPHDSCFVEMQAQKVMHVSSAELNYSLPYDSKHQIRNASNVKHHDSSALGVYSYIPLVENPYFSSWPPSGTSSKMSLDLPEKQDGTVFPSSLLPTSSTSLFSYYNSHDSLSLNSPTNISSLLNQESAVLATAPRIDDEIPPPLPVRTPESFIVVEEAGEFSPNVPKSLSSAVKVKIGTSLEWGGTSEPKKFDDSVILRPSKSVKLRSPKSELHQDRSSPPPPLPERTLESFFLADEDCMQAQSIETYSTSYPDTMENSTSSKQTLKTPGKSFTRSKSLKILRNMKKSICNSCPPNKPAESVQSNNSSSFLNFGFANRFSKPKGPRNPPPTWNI

Row | IC50 [µM] | Compound
1 | 4.76 | O=C(O)CCCN1C(=O)/C(=C/c2ccc(-c3nc4ccccc4s3)o2)SC1=S
2 | 4.58 | Cc1ccc(/C=C/c2nc3sc(C(=O)O)c(C)c3c(=O)[nH]2)cc1[N+](=O)[O-]
